Assays:
[1] = Solubility of magnolol analogs in the combination of PPG-1-PEG-9 lauryl glycol ether, coceth-7 and PEG-40 hydrogenated castor oil (Eumulgin HPS); format: physicochemical; conditions: PPG-1-PEG-9 lauryl glycol ether in combination with coceth-7 and PEG-40 hydrogenated castor oil (Eumulgin HPS)
Excerpt: The PPG-1-PEG-9 lauryl glycol ether can also be included in combination with coceth-7 and PEG-40 hydrogenated castor oil. This combination is available as Eumulgin™ HPS from Cognis Corporation. When this combination is used, the solubility stays the same except for butyl magnolol. This combination solubilizes up to 100 g per liter of butyl magnolol as compared to up to 50 g per liter for PPG-1-PEG-9 lauryl glycol ether alone. In certain embodiments, the amount of this combination is at least 10 times the weight of butyl magnolol.

[2] = format: physicochemical
Excerpt: The PPG-1-PEG-9 lauryl glycol ether is capable of solubilizing up to 100 g per liter of neat propyl magnolol or isopropyl magnolol or up to 50 g per liter of butyl magnolol or isobutyl magnolol. In certain embodiments, the amount of PPG-1-PEG-9 lauryl glycol ether is at least 10 times the weight of the propyl magnolol or isopropyl magnolol in the composition. In certain embodiments, the amount of PPG-1-PEG-9 lauryl glycol ether is at least 20 times the weight of butyl or isobutyl magnolol in the composition.
PPG-1-PEG-9 lauryl glycol ether is available as Eumulgin™ L from Cognis Corporation.

Compound | amount solubilized by the combination [1] | amount solubilized by PPG-1-PEG-9 lauryl glycol ether [2]
CCCCc1ccc(O)c(-c2cc(CCCC)ccc2O)c1 [butyl magnolol, 5,5′-di-n-butylbiphenyl-2,2′-diol] | up to 100 g per liter | up to 50 g per liter
CC(C)Cc1ccc(O)c(-c2cc(CC(C)C)ccc2O)c1 [isobutyl magnolol, 5,5′-di-isobutylbiphenyl-2,2′-diol] | – | up to 50 g per liter
CC(C)c1ccc(O)c(-c2cc(C(C)C)ccc2O)c1 [isopropyl magnolol, 5,5′-di-isopropylbiphenyl-2,2′-diol] | – | up to 100 g per liter
CCCc1ccc(O)c(-c2cc(CCC)ccc2O)c1 [propyl magnolol, 5,5′-di-n-propylbiphenyl-2,2′-diol] | – | up to 100 g per liter

From US9155693B2, “Solubilized magnolol analogs” (Colgate-Palmolive Company, priority 2011, dated 2015)
